{"source": "paper PMC12457078", "about": "“Inhibition of soluble epoxide hydrolase in endotoxin induced pig lung injury” (Frontiers in Pharmacology, 2025)", "system": "sEH", "assay": "oxylipin analysis, epoxide/diol ratios (target engagement)", "format": "in vivo, pig", "parameters": "12,13-DiHOME / 9,10-DiHODE / 11,12-DiHETrE / 14,15-DiHETrE / 10,11-DiHDPE / 19,20-DiHDPE / 13-HODE / 5-HETE / 11-HETE / 12-HETE / 5-HEPE / 9(10)-EpOME / 12(13)-EpOME / EKODE / 11(12)-EpETE: unit not given here", "settings": "for 9,10,13-TriHOME sample concentration / 9,12,13-TriHOME sample concentration: bad chromatography", "method": "All animals were monitored with pulse oximetry, heart rate, ECG, systemic arterial blood pressure (ABP), pulmonary arterial pressure (PAP), central venous pressure (CVP) temperature, tidal volumes, respiratory rate and end tidal carbon dioxide. At baseline, and at 3 h, 6 h and at the end of the experiment, pulmonary capillary wedge pressure (PCWP) was measured together with arterial and venous blood gas analyses, as well as cardiac output calculations. Routine chemistry, including creatinine, bilirubin, glucose, electrolytes were collected at baseline and at the end of the experiment (Vetscan VS2®, Abaxis, Griesheim, Germany). Blood samples for measurement of AEPU plasma concentrations, as well as oxylipins (i.e., EpETrEs and their DiHETrE corresponding diols as well as related compounds with other polyunsaturated fatty acid precursors), were collected at baseline, 6 h and at the end of the experiment.\nThis meant nine subjects in each group to achieve 90% power of detecting a difference of this size given α = 0.05. Anticipating that not all experiments would reach completion, we used a sample size of 22. The results were analyzed using SPSS Statistics, version 24 (IBM Corp., Armonk, N.Y., United States). Normality was examined with the Shapiro-Wilk test, together with examination of histograms of data. Continuous variables were compared using Student’s t-test or Mann Whitney U test, as appropriate. Categorical variables were compared using Fischer’s exact test. Statistical significance was set at α < 0.05. Oxylipins with at least 80% of observations above limit of detection at both timepoints were included in pairwise comparisons of ratios and fold-change evaluations where observations below limit of detection (LOD) were substituted with 0.5 x LOD.", "key": {"[1]": {"settings": "Time (h) 0, single pigs of sEH-i group"}, "[2]": {"settings": "Time (h) 6, single pigs of sEH-i group"}, "[3]": {"settings": "animal 20, time 6, sample Schwein36"}}, "note": "Values joined by “and” are separate entries in the source; they are usually repeats but may differ in a detail not shown here. Identical values can stand only once.", "data": [{"smiles": "CCOCCOCCOCCCCCNC(=O)NC12CC3CC(CC(C3)C1)C2", "note": "[sEH-i]", "values": [{"measurement": "5(6)-EpETrE sample concentration", "setting": "[1]", "value": "<LOD"}, {"measurement": "5,6-DiHETrE sample concentration", "setting": "[1]", "value": "<LOD"}, {"measurement": "7(8)-EpDPE sample concentration", "setting": "[1]", "value": "<LOD"}, {"measurement": "7,8-DiHDPE sample concentration", "setting": "[1]", "value": "<LOD"}, {"measurement": "8(9)-EpETE sample concentration", "setting": "[1]", "value": "<LOD"}, {"measurement": "8(9)-EpETrE sample concentration", "setting": "[1]", "value": "<LOD"}, {"measurement": "8,9-DiHETE sample concentration", "setting": "[1]", "value": "<LOD"}, {"measurement": "9-HETE sample concentration", "setting": "[1]", "value": "<LOD"}, {"measurement": "9-oxo-ODE sample concentration", "setting": "[1]", "value": "<LOD"}, {"measurement": "10(11)-EpDPE sample concentration", "setting": "[1]", "value": "<LOD"}, {"measurement": "11(12)-EpETE sample concentration", "setting": "[1]", "value": "0.1209 pmol/mL and 0.141 pmol/mL and 0.08872 pmol/mL"}, {"measurement": "13(14)-EpDPE sample concentration", "setting": "[1]", "value": "<LOD"}, {"measurement": "14(15)-EpETE sample concentration", "setting": "[1]", "value": "<LOD"}, {"measurement": "15-HEPE sample concentration", "setting": "[1]", "value": "<LOD"}, {"measurement": "16(17)-EpDPE sample concentration", "setting": "[1]", "value": "<LOD"}, {"measurement": "17(18)-EpETE sample concentration", "setting": "[1]", "value": "<LOD"}, {"measurement": "17-HDoHE sample concentration", "setting": "[1]", "value": "<LOD"}, {"measurement": "19(20)-EpDPE sample concentration", "setting": "[1]", "value": "<LOD"}, {"measurement": "LTB4 sample concentration", "setting": "[1]", "value": "<LOD"}, {"measurement": "PGD2 sample concentration", "setting": "[1]", "value": "<LOD"}, {"measurement": "PGE2 sample concentration", "setting": "[1]", "value": "<LOD"}, {"measurement": "PGF2a sample concentration", "setting": "[1]", "value": "<LOD"}, {"measurement": "Resolvin D1 sample concentration", "setting": "[1]", "value": "<LOD"}, {"measurement": "Resolvin D2 sample concentration", "setting": "[1]", "value": "<LOD"}, {"measurement": "TXB2 sample concentration", "setting": "[1]", "value": "0.17 pmol/mL and 0.31 pmol/mL"}, {"measurement": "9,10,13-TriHOME sample concentration", "setting": "[1]", "value": "4.78 pmol/mL and 2.75 pmol/mL and 3.27 pmol/mL"}, {"measurement": "9,12,13-TriHOME sample concentration", "setting": "[1]", "value": "<LOD"}, {"measurement": "5(6)-EpETrE sample concentration", "setting": "[2]", "value": "<LOD"}, {"measurement": "7(8)-EpDPE sample concentration", "setting": "[2]", "value": "<LOD"}, {"measurement": "7,8-DiHDPE sample concentration", "setting": "[2]", "value": "<LOD"}, {"measurement": "8(9)-EpETE sample concentration", "setting": "[2]", "value": "<LOD"}, {"measurement": "8(9)-EpETrE sample concentration", "setting": "[2]", "value": "<LOD"}, {"measurement": "9-HETE sample concentration", "setting": "[2]", "value": "<LOD"}, {"measurement": "9-oxo-ODE sample concentration", "setting": "[2]", "value": "<LOD"}, {"measurement": "10(11)-EpDPE sample concentration", "setting": "[2]", "value": "<LOD"}, {"measurement": "11(12)-EpETE sample concentration", "setting": "[2]", "value": "0.1453 pmol/mL and 0.09993 pmol/mL and 0.1012 pmol/mL"}, {"measurement": "13(14)-EpDPE sample concentration", "setting": "[2]", "value": "<LOD"}, {"measurement": "14(15)-EpETE sample concentration", "setting": "[2]", "value": "<LOD"}, {"measurement": "15-HEPE sample concentration", "setting": "[2]", "value": "<LOD"}, {"measurement": "16(17)-EpDPE sample concentration", "setting": "[2]", "value": "<LOD"}, {"measurement": "17(18)-EpETE sample concentration", "setting": "[2]", "value": "<LOD"}, {"measurement": "19(20)-EpDPE sample concentration", "setting": "[2]", "value": "<LOD"}, {"measurement": "LTB4 sample concentration", "setting": "[2]", "value": "<LOD"}, {"measurement": "PGD2 sample concentration", "setting": "[2]", "value": "<LOD"}, {"measurement": "PGE2 sample concentration", "setting": "[2]", "value": "<LOD"}, {"measurement": "Resolvin D1 sample concentration", "setting": "[2]", "value": "<LOD"}, {"measurement": "Resolvin D2 sample concentration", "setting": "[2]", "value": "<LOD"}, {"measurement": "TXB2 sample concentration", "setting": "[2]", "value": "1.20 pmol/mL and 2.15 pmol/mL and 2.09 pmol/mL"}, {"measurement": "9,10,13-TriHOME sample concentration", "setting": "[2]", "value": "4.27 pmol/mL and 3.59 pmol/mL and 2.73 pmol/mL"}, {"measurement": "9,12,13-TriHOME sample concentration", "setting": "[2]", "value": "<LOD"}, {"measurement": "5(6)-EpETrE", "setting": "[3]", "value": "<LOD"}, {"measurement": "5,6-DiHETrE", "setting": "[3]", "value": "<LOD"}, {"measurement": "5-HEPE", "setting": "[3]", "value": "<LOD"}, {"measurement": "5-HETE", "setting": "[3]", "value": "<LOD"}, {"measurement": "5-oxo-ETE", "setting": "[3]", "value": 0.05}, {"measurement": "7(8)-EpDPE", "setting": "[3]", "value": "<LOD"}, {"measurement": "7,8-DiHDPE", "setting": "[3]", "value": "<LOD"}, {"measurement": "8(9)-EpETE", "setting": "[3]", "value": "<LOD"}, {"measurement": "8(9)-EpETrE", "setting": "[3]", "value": "<LOD"}, {"measurement": "8,9-DiHETE", "setting": "[3]", "value": "<LOD"}, {"measurement": "8,9-DiHETrE", "setting": "[3]", "value": 0.0443}, {"measurement": "8-HETE", "setting": "[3]", "value": 0.0319}, {"measurement": "9(10)-EpODE", "setting": "[3]", "value": "<LOD"}, {"measurement": "9(10)-EpOME", "setting": "[3]", "value": 0.34}, {"measurement": "9,10,13-TriHOME", "setting": "[3]", "value": 6.77}, {"measurement": "9,10-DiHODE", "setting": "[3]", "value": 0.0155}, {"measurement": "9,10-DiHOME", "setting": "[3]", "value": 0.21}, {"measurement": "9,12,13-TriHOME", "setting": "[3]", "value": "<LOD"}, {"measurement": "9-HETE", "setting": "[3]", "value": "<LOD"}, {"measurement": "9-HODE", "setting": "[3]", "value": 1.17}, {"measurement": "9-HOTrE", "setting": "[3]", "value": 0.2865}, {"measurement": "9-oxo-ODE", "setting": "[3]", "value": "<LOD"}, {"measurement": "10(11)-EpDPE", "setting": "[3]", "value": "<LOD"}, {"measurement": "10,11-DiHDPE", "setting": "[3]", "value": "<LOD"}, {"measurement": "11(12)-EpETE", "setting": "[3]", "value": 0.0834}, {"measurement": "11(12)-EpETrE", "setting": "[3]", "value": 0.0219}, {"measurement": "11,12-DiHETE", "setting": "[3]", "value": 0.0228}, {"measurement": "11,12-DiHETrE", "setting": "[3]", "value": 0.45}, {"measurement": "11-HETE", "setting": "[3]", "value": 0.12}, {"measurement": "12(13)-EpODE", "setting": "[3]", "value": "<LOD"}, {"measurement": "12(13)-EpOME", "setting": "[3]", "value": 0.3027}, {"measurement": "12,13-DiHODE", "setting": "[3]", "value": "<LOD"}, {"measurement": "12,13-DiHOME", "setting": "[3]", "value": 0.26}, {"measurement": "12-HEPE", "setting": "[3]", "value": 0.0122}, {"measurement": "12-HETE", "setting": "[3]", "value": 0.06381}, {"measurement": "12-oxo-ETE", "setting": "[3]", "value": "<LOD"}, {"measurement": "13(14)-EpDPE", "setting": "[3]", "value": "<LOD"}, {"measurement": "13,14-DiHDPE", "setting": "[3]", "value": 0.04}, {"measurement": "13-HODE", "setting": "[3]", "value": 4.33}, {"measurement": "13-HOTrE", "setting": "[3]", "value": "<LOD"}, {"measurement": "13-oxo-ODE", "setting": "[3]", "value": "<LOD"}, {"measurement": "14(15)-EpETE", "setting": "[3]", "value": "<LOD"}, {"measurement": "14(15)-EpETrE", "setting": "[3]", "value": "<LOD"}, {"measurement": "14,15-DiHETrE", "setting": "[3]", "value": 0.58}, {"measurement": "15(16)-EpODE", "setting": "[3]", "value": 0.25}, {"measurement": "15,16-DiHODE", "setting": "[3]", "value": 2.37}]}]}
